Test results reported in ChEMBL document CHEMBL1201862, “PubChem BioAssay data set” (2004).
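A five-concentration, 48-hour dose response in 96-well plates underlies each endpoint, interpolated linearly between surrounding concentrations. GI50: concentration for 50% inhibition of growth.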 Activity calls are given as the source filed them. Rule as the data show it: active = GI50 up to about 1.1 µM and inactive = higher.

Columns and labels:
Test in all cases: DTP human tumour cell line panel, 48 h
SN12C = test system: SN12C
SF-295 = test system: SF-295
ACHN = test system: ACHN
NCI-H23 = test system: NCI-H23
NCI-H460 = test system: NCI-H460
786-0 = test system: 786-0
HOP-92 = test system: HOP-92
HT-29 = test system: HT-29
SF-539 = test system: SF-539
UACC-62 = test system: UACC-62
SNB-75 = test system: SNB-75
LOX IMVI = test system: LOX IMVI
IGROV-1 = test system: IGROV-1
M14 = test system: M14
SF-268 = test system: SF-268
DMS-114 = test system: DMS-114
HL-60 = test system: HL-60

Measured: GI50

CCCCCN(CCCCC)C(=O)[C@@H](CCC(=O)OCc1ccccc1)NC(=O)c1cc2ccccc2[nH]1
inactive: SN12C > 100 µM | SF-295 > 100 µM | ACHN > 100 µM | NCI-H23 > 100 µM | NCI-H460 > 100 µM | 786-0 > 100 µM | HOP-92 > 100 µM | HT-29 > 100 µM | SF-539 > 100 µM | UACC-62 6.78 µM | SNB-75 > 100 µM | LOX IMVI > 100 µM | IGROV-1 > 100 µM | M14 > 100 µM | SF-268 > 100 µM | DMS-114 > 100 µM

CC1SC2=NC3=C(c4ccccc4C3=O)C(c3ccc(Br)cc3)N2C1=O (stereo unspecified)
inactive: SN12C 37.8 µM | SF-295 56.9 µM | ACHN > 100 µM | HL-60 22.4 µM | NCI-H23 40.8 µM | NCI-H460 > 100 µM | 786-0 64.4 µM | HOP-92 29 µM | HT-29 > 100 µM | UACC-62 30.6 µM | SNB-75 24.5 µM | IGROV-1 > 100 µM | M14 96.4 µM | SF-268 37.9 µM | DMS-114 31.2 µM

C/C(CC(=O)Nc1cccc(Cl)c1C)=N\NC(=O)c1ccncc1
inactive: SF-295 > 100 µM | HL-60 > 100 µM | NCI-H23 58.9 µM | NCI-H460 > 100 µM | 786-0 > 100 µM | HOP-92 > 100 µM | HT-29 > 100 µM | SF-539 > 100 µM | UACC-62 > 100 µM | SNB-75 > 100 µM | LOX IMVI > 100 µM | IGROV-1 > 100 µM | M14 > 100 µM | SF-268 > 100 µM | DMS-114 > 100 µM

CCOC(=O)C1(C(=O)OCC)OC(=O)NC2=C1CCCC2
inactive: SF-295 > 100 µM | ACHN > 100 µM | HL-60 > 100 µM | NCI-H23 > 100 µM | NCI-H460 > 100 µM | 786-0 > 100 µM | HOP-92 > 100 µM | HT-29 > 100 µM | SF-539 > 100 µM | SNB-75 > 100 µM | LOX IMVI > 100 µM | IGROV-1 > 100 µM | SF-268 > 100 µM | DMS-114 > 100 µM

O=C(Sc1sc(=S)sc1SC(=O)c1ccccc1)c1ccccc1
inactive: SN12C 93.5 µM | SF-295 33.7 µM | ACHN > 100 µM | HL-60 > 100 µM | NCI-H23 > 100 µM | NCI-H460 > 10 µM | 786-0 > 100 µM | HOP-92 50.6 µM | HT-29 36.6 µM | SF-539 46.2 µM | UACC-62 21.9 µM | SNB-75 30.3 µM | IGROV-1 43.2 µM | M14 68.9 µM | SF-268 62.1 µM | DMS-114 > 100 µM
